In article PMC11257323, “Thermostabilization of a fungal laccase by entrapment in enzymatically synthesized levan nanoparticles” (PLOS ONE, 2024):

Molecular target: T1, LevS△N70Tn38 (Leuconostoc mesenteroides, UniProt Q1L7R6)
T1 construct: truncated levansucrase LevS△N70Tn38 (name implies N-terminal 70-residue deletion); pET-22b, expressed in E. coli BL21, DEAE-purified
Assay: DNS reducing-sugar assay
Format: biochemical
Conditions: 292 mM sucrose; 50 mM acetate pH 6.0; 1 mM CaCl2; 30°C

T1 sequence (Q1L7R6 entry or part of it): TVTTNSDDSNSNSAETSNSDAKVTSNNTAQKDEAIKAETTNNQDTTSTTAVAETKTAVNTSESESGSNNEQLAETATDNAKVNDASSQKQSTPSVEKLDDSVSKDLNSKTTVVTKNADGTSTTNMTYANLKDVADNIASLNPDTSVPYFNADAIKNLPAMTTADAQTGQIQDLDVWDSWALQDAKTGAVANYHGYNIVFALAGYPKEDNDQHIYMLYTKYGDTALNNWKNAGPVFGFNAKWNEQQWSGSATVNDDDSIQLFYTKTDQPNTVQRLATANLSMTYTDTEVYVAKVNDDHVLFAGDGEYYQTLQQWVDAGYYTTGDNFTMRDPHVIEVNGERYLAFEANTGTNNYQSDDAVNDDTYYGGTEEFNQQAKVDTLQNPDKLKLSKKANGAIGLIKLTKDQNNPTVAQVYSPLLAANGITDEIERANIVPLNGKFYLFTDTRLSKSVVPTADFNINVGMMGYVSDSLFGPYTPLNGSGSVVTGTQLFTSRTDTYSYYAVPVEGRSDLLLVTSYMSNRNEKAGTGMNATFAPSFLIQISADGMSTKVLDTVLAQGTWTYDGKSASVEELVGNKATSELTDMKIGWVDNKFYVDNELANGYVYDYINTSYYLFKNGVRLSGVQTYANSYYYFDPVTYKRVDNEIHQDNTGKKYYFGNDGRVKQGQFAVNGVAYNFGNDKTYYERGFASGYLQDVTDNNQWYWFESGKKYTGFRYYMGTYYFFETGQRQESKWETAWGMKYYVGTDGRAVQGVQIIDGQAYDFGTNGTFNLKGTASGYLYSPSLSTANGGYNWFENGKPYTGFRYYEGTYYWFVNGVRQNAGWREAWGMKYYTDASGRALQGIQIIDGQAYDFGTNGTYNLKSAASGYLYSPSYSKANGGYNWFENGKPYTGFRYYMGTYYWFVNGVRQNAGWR

**Q.** How did the DNS reducing-sugar assay turn out when `OC[C@H]1O[C@@](CO)(O[C@H]2O[C@H](CO)[C@@H](O)[C@H](O)[C@H]2O)[C@@H](O)[C@@H]1O` [sucrose] was run?
**A.** The DNS reducing-sugar assay was “LevS△N70Tn38 activity was determined by quantification of released reducing sugars from sucrose”.
